# Columns and labels:
# [1] = system: A. baumannii (DSM 30007, ATCC 19606); experiment: Broth microdilution antibacterial assay; assay type: cell-based, Acinetobacter baumannii; conditions: n = 3, MHB; for MIC A. baumannii / EC50: mean ± standard error; for MIC A. baumannii / MIC A. baumannii (value in brackets): 22 h; for EC50: read-out: EC50 A. baumannii
# Description: (§1) The antibacterial effect of the silver NHC complexes and selected ligands was evaluated in two Gram-positive [Enterococcus faecium, methicillin resistant S. aureus, (MRSA)] and in four Gram-negative (Acinetobacter baumannii, Escherichia coli, Klebsiella pneumoniae, and Pseudomonas aeruginosa) pathogenic bacterial strains using broth microdilution assays. The resulting minimal inhibitory concentrations (MICs, Table 2) and EC50 (Table S6) were determined by a curve fitting procedure. Silver nitrate (AgNO3), SSD, and various antibiotics were used as references.
# (§2) The following strains of ESKAPE panel were utilized and maintained at 37 °C in MHB (21 g/L Müller Hinton broth, pH 7.4) or TSY (30 g/L trypticase soy broth, 3 g/L yeast extract, pH 7.0–7.2) media: A. baumannii (DSM 30007, ATCC 19606), E. coli (DSM1116, ATCC 9637), K. pneumoniae (DSM 11678, ATCC33495), P. aeruginosa PA7 (DSM 24068) in MHB; E. faecium (DSM 20477, ATCC 19434), and S. aureus MRSA (DSM 11822, ICB 25701) in TSY. MIC values were determined following a standardized protocol in broth microdilution assays. The compounds and reference substances (AgNO3 and SSD) were serially diluted from 64 to 1 μg/mL. Starting inocula of 2–8 × 10^5 CFU/mL in MHB or TSY media at 37 °C were used, and serial dilutions were carried out in 96-well microtiter plates in duplicate. After incubation of the plates for 22 h at 37 °C, the absorbance at 600 nm was measured using The Spark multimode microplate reader (Tecan Trading AG). The MIC values for the tested compounds were determined in three independent experiments and presented in μM with standard errors and also in μg/mL. Amikacin (P. aeruginosa), linezolid (S. aureus), and ciprofloxacin (all other strains) served as positive controls. The MIC and EC50 values were determined by curve fitting with Sigma Plot. To determine the effect of the culture medium on the activity of silver compounds, the assay was performed using MHB, TSY, or DMEM (Gibco). To observe the effect of individual components of TSY medium, antibacterial tests were performed using MHB with addition of tryptone (17 g/L) or yeast extract (3 g/L, both were purchased from Sigma).
# [2] = system: E. coli (DSM1116, ATCC 9637); experiment: microbe, parasite or virus in culture; assay type: cell-based, Escherichia coli; conditions: n = 3, MHB; for EC50 / MIC E. coli: mean ± standard error; for MIC E. coli / MIC E. coli (value in brackets): 22 h
# Description: as §1, §2
# [3] = system: P. aeruginosa (PA 14) biofilm; experiment: Inhibition of biofilm formation, crystal violet staining; assay type: cell-based, Pseudomonas aeruginosa; conditions: for smallest active concentration for biofilm inhibition: concentration at which the % inhibition was found; for biofilm inhibition: ± SD, n = 4, at the respective smallest active concentration, 24 h
# Excerpt: Silver and its complexes can strongly affect the growth of biofilms.[56]−[58] In view of the promising activity against Gram-negative bacteria as mentioned above, we evaluated the inhibiting effect of the silver complexes on biofilm production by P. aeruginosa by a method based on crystal violet staining (Table 4 and Figure S14). Complexes 3a–c and 4a–c were selected for the test based on the results of solubility, stability, and antibacterial screening. […] The lower activity of 3c might be explained by its lower kinetic solubility in the aqueous environment (see Figure 4).
# The antibiofilm activity was determined according to a literature method.[73] A 1 mL aliquot of P. aeruginosa (PA 14) was taken from −20 °C stock, incubated in 25 mL LB medium (Luria–Bertani Broth) in a 250 mL flask, and kept at 37 °C at 100 rpm overnight. The optical density at 600 nm (OD600) of the culture solution was adjusted to match the turbidity of a 0.1 McFarland standard in M63 medium.[74] Selected compounds were mixed with 150 μL of bacterial solution in U-bottom 96 well plates to the final respective concentrations (25–0.2 μg/mL). The plates were further incubated at 37 °C for 24 h while shaking at 150 rpm. Afterward, the plates were rinsed once with 150 μL of PBS buffer, and the biofilms were stained using 150 μL of crystal violet (0.1%) staining at room temperature for 15 min and then rinsed once with PBS buffer. After rinsing, 150 μL of ethanol (95%) was added, and the absorbance was quantified using a plate reader (Synergy 2, BioTek, Santa Clara, USA) at 550 nm. The resulting antibiofilm activity is presented as percentage of inhibition at the respective smallest active concentration in μM with standard deviation (SD) of two repeats with duplicates. Myxovalargin A and DMSO (2.5%) were used as the positive and negative controls, respectively.
# [4] = Conductometry: molar conductivity of silver complexes in DMSO; assay type: physicochemical; conditions: 1.0 mM in DMSO, calculated as monocarbene (NHC)AgX
# Description: Since both the neutral monocarbene and the ionic biscarbene form of the complexes may exist in various proportions in the solution, conductometry studies were performed to reveal the dominant structure. The molar conductivity of 1.0 mM solutions of each complex in DMSO was determined after different periods up to 24 h using AgNO3 as 1:1 electrolyte reference (see Table 1). According to the literature, the expected range of molar conductivity for 1:1 electrolytes in DMSO is 35–90 S cm^2 mol^–1.[45],[46]
# Conductivity measurements were performed using an Apera Instruments EC9500 conductivity meter. Solutions (as indicated, otherwise 1.0 mM) of all compounds were prepared using freshly distilled DMSO with a specific electrical conductivity of ≤3 × 10^–8 S cm^–1. The conductivities were measured at 25 ± 2 °C immediately after complete dissolution and after 24 h.
# [5] = system: P. aeruginosa PA7 (DSM 24068); experiment: microbe, parasite or virus in culture; assay type: cell-based, Pseudomonas aeruginosa; conditions: n = 3, MHB; for MIC P. aeruginosa / EC50: mean ± standard error; for MIC P. aeruginosa / MIC P. aeruginosa (value in brackets): 22 h; for EC50: read-out: EC50 P. aeruginosa
# Description: as §1, §2
# [6] = system: E. faecium (DSM 20477, ATCC 19434); experiment: Broth microdilution antibacterial assay; assay type: cell-based, Enterococcus faecium; conditions: n = 3, TSY; for MIC E. faecium / EC50: mean ± standard error; for MIC E. faecium / MIC E. faecium (value in brackets): 22 h; for EC50: read-out: EC50 E. faecium
# Description: as §1, §2
# [7] = system: S. aureus MRSA (DSM 11822, ICB 25701); experiment: microbe, parasite or virus in culture; assay type: cell-based, methicillin resistant S. aureus; conditions: n = 3, TSY; for MIC MRSA / EC50: mean ± standard error; for MIC MRSA / MIC MRSA (value in brackets): 22 h; for EC50: read-out: EC50 MRSA
# Description: as §1
# The importance of the culture medium used in antibacterial assays has been pointed out for antibiotics and in particular for silver.[53]−[55] In our recent studies, tryptic soy yeast (TSY) broth has been used for growing Gram-positive bacteria. Two components thereof, tryptone and yeast extract, have been reported to affect the antibacterial activity of silver nitrate.[55] Moreover, such an effect was also observed for other media containing at least one of those components.[11],[53] […] Silver nitrate served as a reference, and three different growth media were studied, namely, Müller-Hinton Broth (MHB, commonly used for Gram-negative bacteria), TSY broth (commonly used for Gram-positive bacteria), and DMEM supplemented with 10% FCS (commonly used for growth of mammalian and human cells).
# as §2
# [8] = system: K. pneumoniae (DSM 11678, ATCC33495); experiment: Broth microdilution antibacterial assay; assay type: cell-based, Klebsiella pneumoniae; conditions: n = 3, MHB; for MIC K. pneumoniae / EC50: mean ± standard error; for MIC K. pneumoniae / MIC K. pneumoniae (value in brackets): 22 h; for EC50: read-out: EC50 K. pneumoniae
# Description: as §1, §2
# Caco-2 cells = conditions: read-out: Cytotoxicity IC50 Caco-2; 24 h, almost confluent cell layers, highest concentration 100 μM
# Description: Besides the antimicrobial effects, the toxic effects of silver ions have to be considered.[10],[12] As a primary evaluation of the cell toxicity triggered by silver NHC complexes, almost confluent cell layers of CaCo-2 cells were grown and challenged for 24 h with the silver complexes and also with the silver reference compounds AgNO3 and SSD (see Figure 6).
# Caco-2 cells were grown as almost confluent monolayers in 96-well plates. The complexes were dissolved in wells of 96-well plates as stock solutions in DMSO (0.2% v/v) diluted with DMEM cell culture medium, which was supplemented with 10% fetal calf serum and 50 mg/L gentamicin. The cell layers were incubated with the drug containing media for 24 h at 37 °C/5% CO2 in an incubator. The cell viability was determined using crystal violet (0.02%) staining and was calculated as percentage of an untreated control. Results were obtained in three independent experiments.
Compound,MIC A. baumannii [1],EC50 [1],MIC A. baumannii (value in brackets) [1],EC50 [2],MIC E. coli [2],MIC E. coli (value in brackets) [2],Molar conductivity ΛM ([4]; 1 h after dissolution),Molar conductivity ΛM ([4]; 24 h after dissolution),MIC P. aeruginosa [5],EC50 [5],MIC P. aeruginosa (value in brackets) [5],MIC E. faecium [6],EC50 [6],MIC E. faecium (value in brackets) [6],MIC MRSA [7],EC50 [7],MIC MRSA (value in brackets) [7],MIC K. pneumoniae [8],EC50 [8],MIC K. pneumoniae (value in brackets) [8],other results
COCCn1[c]([Ag][Cl])[n+](Cc2ccccn2)c2ccccc21 [4a],16.2 ± 3.2 µM,1.9 ± 0.4 µM,7 µg/mL,31.1 ± 1.8 µM,39.0 ± 0.0 µM,16 µg/mL,3.38 S cm^2 mol^–^1,3.01 S cm^2 mol^–^1,26.0 ± 6.5 µM,9.6 ± 0.3 µM,11 µg/mL,156 ± 0.0 µM,123 ± 6.1 µM,64 µg/mL,156 ± 0.0 µM,85.7 ± 0.6 µM,64 µg/mL,9.74 ± 0.0 µM,5.2 ± 0.1 µM,4 µg/mL,smallest active concentration for biofilm inhibition [3]: 7.6 µM; biofilm inhibition [3]: 71 ± 3%
myxovalargin A [reference compound],,,,,,,,,,,,,,,,,,,,,smallest active concentration for biofilm inhibition [3]: 18.6 µM; biofilm inhibition [3]: 68 ± 0%
"CCn1[c](=[Ag][I])n(Cc2ccccn2)c2ccccc21 [2c, Iodido (1-Ethyl-3-(pyridin-2-ylmethyl)-benzimidazol-2-ylidene) Silver(I)]",8.5 ± 0.0 µM,2.9 ± 0.5 µM,4 µg/mL,12.8 ± 1.1 µM,16.9 ± 0.0 µM,8 µg/mL,6.98 S cm^2 mol^–^1,6.28 S cm^2 mol^–^1,45.2 ± 11.3 µM,14.2 ± 0.8 µM,21 µg/mL,> 136 µM,> 136 µM,> 64 µg/mL,> 136 µM,> 136 µM,> 64 µg/mL,11.3 ± 2.8 µM,5.9 ± 1.7 µM,5 µg/mL,IC50 (Caco-2 cells): > 100 µM
"Cn1[c](=[Ag][I])n(Cc2ccccn2)c2ccccc21 [1c, Iodido (1-Methyl-3-(pyridin-2-ylmethyl)-benzimidazol-2-ylidene) Silver(I)]",8.7 ± 0.0 µM,4.1 ± 0.4 µM,4 µg/mL,6.4 ± 1.1 µM,11.6 ± 2.9 µM,5 µg/mL,7.82 S cm^2 mol^–^1,8.13 S cm^2 mol^–^1,14.6 ± 2.9 µM,5 ± 0.5 µM,7 µg/mL,> 140 µM,> 140 µM,> 64 µg/mL,> 140 µM,> 140 µM,> 64 µg/mL,5.1 ± 1.9 µM,2 ± 0.2 µM,2 µg/mL,IC50 (Caco-2 cells): > 100 µM
"COCCn1[c](=[Ag][Br])n(Cc2ccccn2)c2ccccc21 [4b, Bromido (1-(2-Methoxyethyl)-3-(pyridin-2-ylmethyl)-benzimidazol-2-ylidene) Silver(I)]",11.7 ± 2.9 µM,2.1 ± 0.1 µM,5 µg/mL,59.2 ± 4.3 µM,70.3 ± 0.0 µM,32 µg/mL,5.11 S cm^2 mol^–^1,5.08 S cm^2 mol^–^1,23.4 ± 5.9 µM,8.6 ± 1.1 µM,11 µg/mL,141 ± 0.0 µM,120 ± 0.8 µM,64 µg/mL,141 ± 0.0 µM,78.3 ± 2 µM,64 µg/mL,17.6 ± 0.0 µM,9.8 ± 1 µM,8 µg/mL,smallest active concentration for biofilm inhibition [3]: 6.8 µM; biofilm inhibition [3]: 70 ± 5%

# Reference: publication PMC11091889, “Silver Organometallics that are Highly Potent Thioredoxin and Glutathione Reductase Inhibitors: Exploring the Correlations of Solution Chemistry with the Strong Antibacterial Effects” (ACS Infectious Diseases, 2024)
